From ChEMBL document CHEMBL1800009, “Pyrazolopyridazine alpha-2-delta-1 ligands for the treatment of neuropathic pain” (Bioorg Med Chem Lett, 2010)

Key:
in vivo [1] = conditions: rat, whole blood
in vivo [2] = conditions: rat, brain/blood, 30 mg/kg

Row | SMILES | clearance (in vivo [1]) | Kp (in vivo [2])
1 | Cc1nnc(N2CCCC2)c2nn(-c3ccc(OCC(F)(F)F)cc3)c(C)c12 | 49 mL/min/kg | 
2 | COC1CN(c2nnc(C)c3c(C)n(-c4ccc(Cl)cc4OC(F)(F)F)nc23)C1 | 52 mL/min/kg | 0.94
